In data set [1] the target is CDK9/Cyclin K (Homo sapiens, UniProt P50750). As to the kind of experiment: Inhibition of CDK9/Cyclin K kinase activity (ADP-Glo). Type of data set: biochemical. The essentials: (§1)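 Kinase preincubated with compound (11 points, 4-fold steps from 50 μM) for 10 minutes at 25° C. in kinase buffer A with DTT, then reacted 40-60 minutes at 25° C. with ATP and CDKtide, Histone H1 or PDKtide substrate. ADP formation read by ADP-Glo luminescence; IC50 from four-parameter fit.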
Chain of CDK9/Cyclin K (P50750 whole entry): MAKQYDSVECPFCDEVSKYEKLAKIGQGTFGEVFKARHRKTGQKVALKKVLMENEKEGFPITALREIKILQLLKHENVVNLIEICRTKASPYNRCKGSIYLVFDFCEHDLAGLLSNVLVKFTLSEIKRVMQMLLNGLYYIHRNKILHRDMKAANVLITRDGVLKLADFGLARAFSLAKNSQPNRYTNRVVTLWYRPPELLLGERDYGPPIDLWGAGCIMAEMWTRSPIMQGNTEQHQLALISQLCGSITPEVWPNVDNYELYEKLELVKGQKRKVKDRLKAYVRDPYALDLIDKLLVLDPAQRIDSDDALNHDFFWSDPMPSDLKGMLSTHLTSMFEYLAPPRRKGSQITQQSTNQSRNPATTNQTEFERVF
Chain of CDK9/Cyclin K (O75909 whole entry partner): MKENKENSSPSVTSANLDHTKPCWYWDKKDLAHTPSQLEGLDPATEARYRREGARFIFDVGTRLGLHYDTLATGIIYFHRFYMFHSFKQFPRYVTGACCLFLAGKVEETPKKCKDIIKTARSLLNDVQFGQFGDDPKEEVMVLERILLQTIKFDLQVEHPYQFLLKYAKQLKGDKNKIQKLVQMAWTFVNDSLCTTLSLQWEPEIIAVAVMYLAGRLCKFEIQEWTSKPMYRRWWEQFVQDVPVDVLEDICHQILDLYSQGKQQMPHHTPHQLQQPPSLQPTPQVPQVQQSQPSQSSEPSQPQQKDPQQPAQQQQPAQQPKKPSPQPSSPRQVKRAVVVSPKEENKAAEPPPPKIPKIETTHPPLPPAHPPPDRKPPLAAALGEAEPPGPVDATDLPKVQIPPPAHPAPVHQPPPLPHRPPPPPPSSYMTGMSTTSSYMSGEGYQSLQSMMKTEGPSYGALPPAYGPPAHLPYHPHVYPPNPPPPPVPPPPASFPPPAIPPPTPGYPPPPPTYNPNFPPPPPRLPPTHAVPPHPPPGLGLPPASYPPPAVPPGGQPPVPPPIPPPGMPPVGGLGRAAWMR
For orientation: In ADP-Glo the light output rises with the ADP produced.

Data set [2] in a line: Microsomal stability in human liver microsomes (HLM). It is filed as in vitro ADME. To be noted: 1 μM test compound. Here is the method:
The procedure for investigating the metabolism of selected compounds was carried out in microsomal fractions of the liver (of rats, mice, humans) in the presence of a phase I metabolism cofactor (NADPH).
The rate of enzymatic decomposition of the compound in liver microsomes in in vitro analysis was determined by keeping a reaction mixture comprising 0.5 mg/ml of pooled human, rat or mouse liver microsomes, 1 μM test compound, 1.5 mM […] (Carbosynth, UK, cat. no. NN108711101) and 1.5 mM magnesium chloride in 0.1 M sodium phosphate buffer (pH 7.4) in a solid-state thermostat at 37° C. (XenoTech, USA, order no. H2610, cat. no. R1000, cat. no. M1000). Incubation was carried out in three replicates.
To determine the stability of compounds under sample preparation conditions, an aliquot in two replicates with the test compound and a microsomal fraction devoid of the NADPH cofactor, which was incubated for 40 minutes at 37° C.
Reactions were stopped at 0, 10, 20, 30 and 40 min time points by way of adding an ice mixture of acetonitrile:methanol (3:1) comprising an internal standard.
Samples were then centrifuged to remove the precipitated protein, supernatants were analyzed using HPLC-MS/MS to determine in vitro clearance (CLint) of the compounds. The Agilent 6410 mass spectrometer (Agilent, USA) combined with the Agilent 1260 Infinity II HPLC liquid chromatograph (Agilent, USA) and a cooling autosampler controlled by MassHunter software (Agilent, USA) was used as an HPLC-MS/MS system. Chromatographic analysis was performed on a C18 reversed-phase HPLC column (Agilent, Waters or equivalent) in a gradient elution mode in a system of mobile phases: 0.1% formic acid in water/0.1% formic acid in acetonitrile, flow rate: 0.5 ml/min, column T=35° C. Mass spectrometric detection was performed with electrospray ionization in multiple reaction monitoring mode. Precursor ions, fragment ions and collision energies for each substance were selected experimentally.
A graph of dependence of the logarithmic ratio between substance's peak area and internal standard's peak area vs time was built. The dependent coefficient of this line corresponded to the elimination rate constant k, on the basis of which the in vitro clearance CLint was calculated:
Based on resulting in vitro clearance CLint values, the microsomal stability of the selected compounds for humans, rats and mice was concluded.
(In general: Liver microsomes are a subcellular fraction often used to study metabolism.)

Data set [3] has as its system MDA-MB-468 (triple negative breast cancer). Briefly: Antiproliferative assay on MDA-MB-468 cells (AlamarBlue, 96 h). Type of data set: cell-based. To be noted: Homo sapiens, mean value from several measurements.
The target in data set [4] is CDK2/Cyclin A (Homo sapiens, UniProt P24941). As to the kind of experiment: Inhibition of CDK2/Cyclin A kinase activity (ADP-Glo). It is filed as biochemical. A digest of the protocol: as §1
The test system of data set [5] is NCl-H82 (small cell lung cancer). As to the kind of experiment: Antiproliferative assay on NCl-H82 cells (AlamarBlue, 120 h). It is filed as cell-based. The conditions noted are these: mean value from several measurements. The protocol:
The antiproliferative activity of CDK7 inhibitors according to the present invention was evaluated in a cell test using continuous cell cultures: MDA-MB-468 (triple negative breast cancer, ATCC® HTB-132™) and NCl-H82 (small cell lung cancer, ATCC® HTB-175™) using a viable AlamarBlue dye (Thermo Fisher Scientific Inc, order no. DAL1100). The cells were grown in DMEM (PanEco, order no. C330π) and RPMI-1640 (PanEco, order no. C330π), respectively. The basal growth medium was enriched with L-glutamine at a concentration of 2 mM (PanEco, order no. Φ032) and 10% fetal bovine serum (Gibco, order no. 16140-071). The night before measurement, MDA-MB-468 adherent cells were detached from plastic with a solution of trypsin-EDTA (PanEco, order no. Π039π), the solution was then inactivated by a DMEM complete medium, centrifuged at 1000 RPM (Eppendorf, 5804 R), a suspension of cells was prepared in a DMEM complete medium, introduced into 96-well culture plates (Corning Inc, order no. 3599) at 8×10^3 cells in 100 μl of medium per well. The next day, test compounds were dissolved in DMSO and diluted with a DMEM complete medium to a final concentration ranging from 50 μM to 10 pM. Diluted compounds in a volume of 50 μl were introduced into the plate wells with cells in triplicates (the final concentration of DMSO was no more than 1%) and incubated at 37° C. in an incubator with 5% CO2 for 96 hours. NCl-H82 suspension cell line was prepared on the day of the analysis. 10×10^3 cells in 100 μl of an RPMI-1640 complete medium were added to each well of a 96-well plate. The procedure for sample dilution is as described above. Cells with test compounds were incubated at 37° C. in an incubator with 5% CO2 for 120 hours. Following incubation, […] of AlamarBlue reagent (Thermo Fisher Scientific Inc., order no. DAL1100) was added to the wells, the contents of the plates were stirred in an orbital shaker (Biosan, Latvia), then further incubated for 5.5-6 hours at 37° C. in an incubator with 5% CO2. The number of viable cells was detected using the Infinite M200Pro microplate spectrophotometer (Tecan Group Ltd, Switzerland) by way of measuring a fluorescent signal at an excitation wavelength (λEx) of 540 nm and an emission wavelength (λEm) of 590 nm.
IC50 value was calculated using the Magellan software (Tecan Group Ltd, Switzerland) by approximating experimental points by four-parameter model with the optimization by Levenberg-Marquardt: […]

Data set [6] is described as follows: General cytotoxicity on primary differentiated HepaRG cells (72 h). It is filed as cell-based. The conditions noted are these: human, general toxicity, mean value from several measurements. A digest of the protocol:
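Differentiated HepaRG cells, maintained a week in basal hepatic medium with maintenance/metabolism supplement, were plated at 25×10^3 cells/well overnight. Compounds (200 μM to 0.2 nM) were added for 72 h before viability readout.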

Data set [7] deals with CDK7/Cyclin H/MNAT1 (Homo sapiens, UniProt P50613). As to the kind of experiment: Inhibition of CDK7/Cyclin H/MNAT1 kinase activity (ADP-Glo). Type of data set: biochemical. A digest of the protocol: as §1
Chain of CDK7/Cyclin H/MNAT1 (P50613 whole entry): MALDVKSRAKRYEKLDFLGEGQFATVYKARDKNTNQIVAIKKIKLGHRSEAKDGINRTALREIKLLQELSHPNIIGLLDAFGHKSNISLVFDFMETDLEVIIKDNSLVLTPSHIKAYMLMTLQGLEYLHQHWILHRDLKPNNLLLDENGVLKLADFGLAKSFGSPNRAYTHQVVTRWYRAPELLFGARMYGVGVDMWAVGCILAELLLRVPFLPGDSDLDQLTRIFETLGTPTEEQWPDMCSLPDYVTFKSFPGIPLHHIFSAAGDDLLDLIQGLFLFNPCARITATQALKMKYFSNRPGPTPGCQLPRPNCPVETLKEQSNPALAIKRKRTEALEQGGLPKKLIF
Chain of CDK7/Cyclin H/MNAT1 (P51946 whole entry partner): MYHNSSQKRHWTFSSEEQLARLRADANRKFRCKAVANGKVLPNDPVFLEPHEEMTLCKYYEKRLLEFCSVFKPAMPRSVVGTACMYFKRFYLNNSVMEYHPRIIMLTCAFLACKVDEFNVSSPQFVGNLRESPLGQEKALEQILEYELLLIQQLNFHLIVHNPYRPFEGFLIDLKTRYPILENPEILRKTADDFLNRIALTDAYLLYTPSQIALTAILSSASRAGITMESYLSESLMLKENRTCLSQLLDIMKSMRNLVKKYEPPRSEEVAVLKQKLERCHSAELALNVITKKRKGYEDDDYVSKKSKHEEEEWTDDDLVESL
Chain of CDK7/Cyclin H/MNAT1 (P51948 whole entry partner): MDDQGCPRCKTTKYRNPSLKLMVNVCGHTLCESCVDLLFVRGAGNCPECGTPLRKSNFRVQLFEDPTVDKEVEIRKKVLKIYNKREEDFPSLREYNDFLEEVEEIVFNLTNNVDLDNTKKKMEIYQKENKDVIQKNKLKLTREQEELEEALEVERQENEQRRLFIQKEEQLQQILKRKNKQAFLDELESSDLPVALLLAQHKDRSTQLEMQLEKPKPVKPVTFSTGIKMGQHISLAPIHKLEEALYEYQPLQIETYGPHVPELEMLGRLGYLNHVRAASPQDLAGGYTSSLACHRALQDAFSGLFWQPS
Data set [8] can be described thus: Passive membrane permeability through PAMPA artificial membrane, pH 7.4. It is filed as in vitro ADME. To be noted: pH 7.4, 10 μmol, 20 hours at room temperature, mean of multiple measurements, read-out: PAMPA passive permeability Pe. A digest of the protocol:
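Compound at 10 μmol in 0.01 M phosphate buffer pH 7.4 placed in donor wells over lecithin-phospholipid-impregnated PVDF filter, buffer in acceptor; 20 h at room temperature. Donor and acceptor levels measured by RP-HPLC-UV; Pe (cm/s) and membrane retention R (%) calculated.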
Background: PAMPA measures passive passage across an artificial lipid membrane.

Where [9] appears, read: mean value from several measurements, read-out: IC50 CDK9/Cyclin K.
Where [10] appears, read: mean value from several measurements, read-out: IC50 CDK2/Cyclin A.
The mark [11] stands for this setting: mean value from several measurements, read-out: IC50 CDK7/Cyclin H/MNAT.

Read-outs that look alike come from different tables or passages of the source. Some results are limits rather than exact numbers.

By CC50 is commonly meant the concentration that lowers cell viability or growth by half. A high value points to lower toxicity to the cells. Turning to `Cc1noc(C)c1-n1ccc2c(-c3nc(N[C@H]4CCCNC4)ncc3C(F)(F)F)c[nH]c2c1=O` [CDK7_924, 6-(3,5-dimethyl-1,2-oxazol-4-yl)-3-(2-{[(3S)-piperidin-3-yl]amino}-5-(trifluoromethyl)pyrimidin-4-yl)-1H,6H,7H-pyrrolo[2,3-c]pyridin-7-one], the IC50 is 0.431 µM in data set [1] (mean of multiple measurement series, ATP 50 μM, read-out: CDK9/Cyclin K IC50); over 0.2 µM in data set [1] (setting [9]); under 0.01 µM in data set [3]; 7.8 µM in data set [4] (mean of multiple measurement series, ATP 50 μM, read-out: CDK2/Cyclin A IC50); over 0.2 µM in data set [4] (setting [10]); 0.01 to 0.1 µM in data set [5]. Moreover, the IC50 was under 0.005 µM in data set [7] (mean of multiple measurement series, ATP 10 μM, read-out: CDK7/Cyclin H/MNAT1 IC50) and under 0.005 µM in data set [7] (setting [11]). Besides, the “In vitro clearance CLint (HLM)” value in data set [2] is “A (Clint < 20 μl/(min · mg of protein))”. This molecule came in with a CC50 at 72 h in data set [6] of over 2 µM.
Consider `Cn1ccnc1N1CCCc2c(-c3nc(NC4CCCNC4)ncc3C(F)(F)F)c[nH]c2C1=O` (stereo not shown) [CDK7_1177], for which the IC50 in data set [1] (setting [9]) is over 0.2 µM; in data set [4] (setting [10]) it was over 0.2 µM; in data set [7] (setting [11]) it was 0.005 to 0.05 µM. Also, in data set [2], the “In vitro clearance CLint (HLM)” value is on record as “A (Clint < 20 μl/(min · mg of protein))”. Besides, the CC50 at 72 h in data set [6] is over 2 µM.
For the molecule `FC(F)(F)c1cnc(N[C@H]2CCCNC2)nc1-c1c[nH]c(-c2noc(C3CC3)n2)c1` [CDK7_1103], the IC50 in data set [1] (setting [9]) is 0.05 to 0.2 µM; in data set [3] it was 0.01 to 0.1 µM; in data set [4] (setting [10]) it was over 0.2 µM; in data set [5], 0.01 to 0.1 µM; in data set [7] (setting [11]) it was under 0.005 µM. In addition, the “In vitro clearance CLint (HLM)” value in data set [2] is listed as “A (Clint < 20 μl/(min · mg of protein))”. Also, the CC50 at 72 h in data set [6] was 0.1 to 0.5 µM.
Regarding `CC1(C)CC[C@H](Nc2ncc(C(F)(F)F)c(-c3c[nH]c4c3CCCN(C3CCCC3)C4=O)n2)CN1` [CDK7_1154, 7-cyclopentyl-3-(2-{[(3S)-6,6-dimethylpiperidin-3-yl]amino}-5-(trifluoromethyl)py-rimidin-4-yl)-1H,4H,5H,6H,7H, 8H-pyrrolo[2,3-c]azepin-8-one], the Papp at 20 h, 10 μmol in data set [8] is 5 to 10 ×10⁻⁶ cm/s. Also, the IC50 was over 0.2 µM in data set [1] (setting [9]); 0.01 to 0.1 µM in data set [3]; over 0.2 µM in data set [4] (setting [10]); 0.01 to 0.1 µM in data set [5]; under 0.005 µM in data set [7] (setting [11]). This molecule also gave a CC50 at 72 h in data set [6] of over 2 µM.
Regarding `Cc1nc(-c2cc(-c3nc(N[C@H]4CCCNC4)ncc3C(F)(F)F)c[nH]2)no1` [CDK7_1060, 4-[5-(5-methyl-1,2,4-oxadiazol-3-yl)-1H-pyrrol-3-yl]-N-[(3S)-piperidin-3-yl]-5-(trifluoromethyl)py-rimidin-2-amine], in data set [8], the Papp at 20 h, 10 μmol was 5 to 10 ×10⁻⁶ cm/s. Moreover, the IC50 is 0.005 to 0.05 µM in data set [1] (setting [9]); 0.01 to 0.1 µM in data set [3]; over 0.2 µM in data set [4] (setting [10]); 0.01 to 0.1 µM in data set [5]; under 0.005 µM in data set [7] (setting [11]). The molecule further came in with a CC50 at 72 h in data set [6] of 0.1 to 0.5 µM.
Consider `O=c1c2[nH]cc(-c3nc(N[C@H]4CCCNC4)ncc3C(F)(F)F)c2ccn1-c1nccs1` [CDK7_1058, 3-(2-{[(3S)-piperidin-3-yl]amino}-5-(trifluoromethyl)py-rimidin-4-yl)-6-(1,3-thiazol-2-yl)-1H,6H,7H-pyrrolo[2,3-c]pyridin-7-one], for which, in data set [8], the Papp at 20 h, 10 μmol was 1 to 5 ×10⁻⁶ cm/s. Also, the IC50 was 0.005 to 0.05 µM in data set [1] (setting [9]); under 0.01 µM in data set [3]; over 0.2 µM in data set [4] (setting [10]); under 0.01 µM in data set [5]; under 0.005 µM in data set [7] (setting [11]). The molecule further gave a half-maximal cytotoxic concentration (CC50) at 72 h in data set [6] of 0.5 to 2 µM.
Take `CN(C)C(=O)c1cc(-c2nc(N[C@H]3CCCNC3)ncc2C(F)(F)F)cn1C` [CDK7_1017, N,N,1-trimethyl-4-(2-{[(3S)-piperidin-3-yl]amino}-5-(trifluoromethyl)py-rimidin-4-yl)-1H-pyrrole-2-carboxamide]: in data set [8], the Papp at 20 h, 10 μmol lay within 1 to 5 ×10⁻⁶ cm/s. The IC50 in data set [1] (setting [9]) was 0.05 to 0.2 µM; in data set [3] it was 0.1 to 1 µM; in data set [4] (setting [10]) it was over 0.2 µM; in data set [5], over 1 µM; in data set [7] (setting [11]), 0.005 to 0.05 µM. The 50% cytotoxic concentration (CC50) at 72 h in data set [6] was over 2 µM.
Turning to `Cn1nnnc1-c1cc(-c2nc(N[C@H]3CCCNC3)ncc2C(F)(F)F)c[nH]1` [CDK7_999, 4-[5-(1-methyl-1H-1,2,3,4-tetrazol-5-yl)-1H-pyrrol-3-yl]-N-[(3S)-piperidin-3-yl]-5-(trifluoromethyl) pyrimidin-2-amine], the Papp at 20 h, 10 μmol in data set [8] is under 1 ×10⁻⁶ cm/s. Further, the IC50 was 0.005 to 0.05 µM in data set [1] (setting [9]); 0.01 to 0.1 µM in data set [3]; over 0.2 µM in data set [4] (setting [10]); 0.1 to 1 µM in data set [5]; under 0.005 µM in data set [7] (setting [11]). Moreover, the cytotoxic concentration (CC50) at 72 h in data set [6] is 0.5 to 2 µM.
For `FC(F)(F)c1cnc(N[C@H]2CCCNC2)nc1-c1c[nH]c(-c2nnnn2C2CC2)c1` [CDK7_1102], the Papp at 20 h, 10 μmol in data set [8] was 1 to 5 ×10⁻⁶ cm/s. Moreover, the IC50 is 0.005 to 0.05 µM in data set [1] (setting [9]); 0.01 to 0.1 µM in data set [3]; over 0.2 µM in data set [4] (setting [10]); 0.01 to 0.1 µM in data set [5]; 0.005 to 0.05 µM in data set [7] (setting [11]). Besides, the CC50 at 72 h in data set [6] is 0.5 to 2 µM.
